# Test results: patent US11304892B2, “Alteromonas macleodii Dow02-2 and its metabolites for improving skin moisturization” (TCI Co., Ltd., priority 2018, dated 2022)
# Key:
# Type in all cases: cell-based
# Conditions in all cases: HPEK-50 cells, 10 μg/ml, 6 hours, 37° C.
# HAS3 gene = test: qPCR relative expression of HAS3 gene in human epidermal keratinocytes HPEK-50
# Procedure: (§1) The human epidermal keratinocytes HPEK-50 were cultured with a keratinocyte-SFM at 37° C. for 24 hours. Thereafter, the cells were divided into eight groups and respectively cultured with the following media at 37° C. for 6 hours: • 1. Control group: keratinocyte-SFM; • 2. “Supernatant” group: keratinocyte-SFM that was additionally added with 62.5 μg/ml of the supernatant obtained from [Preparation Example] B; • 3. “Fraction 1” group: keratinocyte-SFM that was additionally added with 62.5 μg/ml of the Fraction 1 obtained from [Preparation Example] C-1; • 4. “Fraction 2” group: keratinocyte-SFM that was additionally added with 62.5 μg/ml of the Fraction 2 obtained from [Preparation Example] C-1; • 5. […]
# (§2) To investigate the effects of metabolites of Alteromonas macleodii Dow02-2 and 2-hydroxy-3-methylbutyric acid on moisturizing skin, inventors of the present invention collected the cells in each group of Example 1-1. […] Thereafter, the cDNA was subjected to a quantitative polymerase chain reaction (qPCR) by using a KAPA CYBR FAST qPCR kit (purchased from KAPA Biosystems) and ABI StepOne Plus™ System to determine the expression levels of moisturizing-related genes such as TGM1 gene, KRT1 gene, KRT10 gene, KRT14 gene, FLG gene, GBA gene and HAS3 gene in the cells of each group. […]
# FLG gene = test: qPCR relative expression of FLG gene in human epidermal keratinocytes HPEK-50
# Procedure: as §1, §2
# GBA gene = test: qPCR relative expression of GBA gene in human epidermal keratinocytes HPEK-50
# Procedure: as §1, §2
# KRT14 gene = test: qPCR relative expression of KRT14 gene in human epidermal keratinocytes HPEK-50
# Procedure: as §1, §2
# KRT1 gene = test: qPCR relative expression of KRT1 gene in human epidermal keratinocytes HPEK-50
# Procedure: as §1, §2
# TGM1 gene = test: qPCR relative expression of TGM1 gene in human epidermal keratinocytes HPEK-50
# Procedure: as §1, §2
# KRT10 gene = test: qPCR relative expression of KRT10 gene in human epidermal keratinocytes HPEK-50
# Procedure: as §1, §2
structure (smiles),measurement,setting,value
CC(C)C(O)C(=O)O (stereo not shown) [2-hydroxy-3-methylbutyric acid],increase of expression level of HAS3 gene in comparison with the control group,HAS3 gene,97%
same,increase of expression level of FLG gene in comparison with the control group,FLG gene,41%
same,increase of expression level of GBA gene in comparison with the control group,GBA gene,49%
same,increase of expression level of KRT14 gene in comparison with the control group,KRT14 gene,43%
same,increase of expression level of KRT1 gene in comparison with the control group,KRT1 gene,29%
same,increase of expression level of TGM1 gene in comparison with the control group,TGM1 gene,26%
same,increase of expression level of KRT10 gene in comparison with the control group,KRT10 gene,158%
